Here are results for 66 compounds from patent EP2540163A1, “Nematocide N-cyclopropyl-sulfonylamide derivatives” (Bayer CropScience AG, priority 2011, dated 2013).

This data set can be described thus: logP by HPLC on reversed-phase column (C 18), EEC Directive 79/831 Annex V.A8, Method B (0.1% aqueous formic acid / acetonitrile, 40°C). It is filed as physicochemical. The conditions noted are these: c18 reversed-phase hplc; LogP method B: HPLC reversed-phase C 18, 40°C, 0.1% aqueous formic acid / acetonitrile. The protocol: Calibration was carried out using unbranched alkan-2-ones (having 3 to 16 carbon atoms) with known logP values (determination of the logP values by the retention times using linear interpolation between two successive alkanones).
As to `Cc1cc(C(=O)N(C2CC2)S(=O)(=O)c2cccc(Cl)c2Cl)c(C)o1` [compound 5], the chromatographic logP stood at 3.8.
In turn, `Cc1cc(C(=O)N(C2CC2)S(=O)(=O)c2ccc(Cl)c(Cl)c2Cl)c(C)o1` [compound 6] displayed a chromatographic logP of 4.4.
Consider `O=C(c1ccsc1I)N(C1CC1)S(=O)(=O)c1cccc(Cl)c1Cl` [compound 19], for which the chromatographic logP came to 3.8.
`COc1cscc1C(=O)N(C1CC1)S(=O)(=O)c1cccc(Cl)c1Cl` [compound 25]: the chromatographic logP worked out at 3.3.
On to `COc1cscc1C(=O)N(C1CC1)S(=O)(=O)c1ccc(Cl)c(Cl)c1Cl` [compound 27], for which the chromatographic logP was found to be 3.9.
Compound `Cn1cc(C(=O)N(C2CC2)S(=O)(=O)c2cccc(Cl)c2Cl)c(C(F)(F)F)c1` [compound 36] gave a chromatographic logP of 3.3.
The same measure for `Cn1cc(C(=O)N(C2CC2)S(=O)(=O)c2ccc(Cl)c(Cl)c2Cl)c(C(F)(F)F)c1` [compound 37]: 3.9; for `Cc1cc(C(=O)N(C2CC2)S(=O)(=O)c2cccc(Cl)c2Cl)nn1C` [compound 74]: 2.7.
The same measure for `Cc1cc(C(=O)N(C2CC2)S(=O)(=O)c2ccc(Cl)c(Cl)c2Cl)nn1C` [compound 75]: 3.3; for `CC(C)c1nn(C)c(F)c1C(=O)N(C1CC1)S(=O)(=O)c1cccc(Cl)c1Cl` [compound 93]: 3.6; for `CC(C)c1nn(C)c(F)c1C(=O)N(C1CC1)S(=O)(=O)c1ccc(Cl)cc1Cl` [compound 96]: 3.8.
Take `CC(C)c1nn(C)c(F)c1C(=O)N(C1CC1)S(=O)(=O)c1ccc(C(F)(F)F)cc1Cl` [compound 97]: the chromatographic logP was 4.
Regarding `Cn1nc(-c2ccccc2)c(C(=O)N(C2CC2)S(=O)(=O)c2ccc(Cl)c(Cl)c2Cl)c1F` [compound 100], the chromatographic logP worked out at 4.3.
In the case of `Cn1nc(-c2ccccc2)c(C(=O)N(C2CC2)S(=O)(=O)c2cccc(Cl)c2Cl)c1F` [compound 101], the chromatographic logP is 3.7.
For `Cn1nc(C(F)F)c(C(=O)N(C2CC2)S(=O)(=O)c2ccccc2Cl)c1F` [compound 103], the chromatographic logP was 2.8.
The same measure for `Cn1nc(C(F)F)c(C(=O)N(C2CC2)S(=O)(=O)c2cccc(Cl)c2Cl)c1F` [compound 104]: 3.2; for `Cn1nc(C(F)F)c(C(=O)N(C2CC2)S(=O)(=O)c2ccc(Cl)cc2Cl)c1F` [compound 105]: 3.4.
Consider `Cn1nc(C(F)(F)F)c(C(=O)N(C2CC2)S(=O)(=O)c2ccc(Cl)c(Cl)c2Cl)c1F` [compound 108], for which the chromatographic logP was determined as 4.1.
`CC(F)c1nn(C)cc1C(=O)N(C1CC1)S(=O)(=O)c1cccc(Cl)c1Cl` (stereo not drawn) [compound 119] gave a chromatographic logP of 2.8.
With `Cn1cc(C(=O)N(C2CC2)S(=O)(=O)c2cccc(Cl)c2Cl)c(C(F)F)n1` [compound 221], the chromatographic logP was determined as 2.9. The chromatographic logP values of the last two compounds are within 0.2 log units of each other.
Take `Cn1nc(C2CC2)c(C(=O)N(C2CC2)S(=O)(=O)c2ccc(Cl)c(Cl)c2Cl)c1Cl` [compound 223]: the chromatographic logP worked out at 4.2.
`Cn1nc(C2CC2)c(C(=O)N(C2CC2)S(=O)(=O)c2ccc(Cl)c(Cl)c2Cl)c1F` [compound 224]: the chromatographic logP was found to be 3.9.
`Cn1nc(C2CC2)c(C(=O)N(C2CC2)S(=O)(=O)c2cccc(Cl)c2Cl)c1Cl` [compound 225] showed a chromatographic logP of 4.7.
The compound `Cc1nn(C)c(C#N)c1C(=O)N(C1CC1)S(=O)(=O)c1ccc(Cl)c(Cl)c1Cl` [compound 228] showed a chromatographic logP of 3.9.
`Cc1nn(C)c(N(C)C)c1C(=O)N(C1CC1)S(=O)(=O)c1ccc(Cl)c(Cl)c1Cl` [compound 229]: the chromatographic logP is 3.6.
`COc1c(C(=O)N(C2CC2)S(=O)(=O)c2ccc(Cl)c(Cl)c2Cl)c(C)nn1C` [compound 230] yielded a chromatographic logP of 3.2.
Compound `Cc1nn(C)c(Oc2ccc(Cl)cc2)c1C(=O)N(C1CC1)S(=O)(=O)c1ccccc1Cl` [compound 261] showed a chromatographic logP of 3.6.
`COc1nn(C)c(Cl)c1C(=O)N(C1CC1)S(=O)(=O)c1cccc(Cl)c1Cl` [compound 278]: the chromatographic logP turned out to be 3.2.
In the case of `COc1nn(C)c(Cl)c1C(=O)N(C1CC1)S(=O)(=O)c1ccc(Oc2ccccc2)cc1` [compound 280] it was 3.8; in that of `COc1nn(C)c(Cl)c1C(=O)N(C1CC1)S(=O)(=O)c1ccc(Cl)c(Cl)c1Cl` [compound 282], 3.8.
In the case of `COc1nn(C)c(Cl)c1C(=O)N(C1CC1)S(=O)(=O)c1ccc(Oc2ccc(Br)cc2)cc1` [compound 284] it was 4.3.
For `CCCOc1nn(C)cc1C(=O)N(C1CC1)S(=O)(=O)c1ccc(Oc2ccc(Cl)c(C(F)(F)F)c2)cc1Br` [compound 302], the chromatographic logP turned out to be 4.9.
Compound `CCCOc1nn(C)cc1C(=O)N(C1CC1)S(=O)(=O)c1ccc(Oc2ccc(Br)c(Cl)c2)cc1Br` [compound 304] displayed a chromatographic logP of 5.
In the case of `CCCOc1nn(C)cc1C(=O)N(C1CC1)S(=O)(=O)c1ccc(Oc2cc(Cl)cc(Cl)c2)cc1Br` [compound 305] it was 5.1; in that of `Cn1nc(C(F)(F)F)c(C(=O)N(C2CC2)S(=O)(=O)c2cccc(Cl)c2Cl)c1F` [compound 357], 3.3; in that of `Cn1nc(C(F)(F)F)c(C(=O)N(C2CC2)S(=O)(=O)c2c(Cl)cccc2Cl)c1F` [compound 360], 3.1.
On to `Cn1nc(C(F)(F)F)c(C(=O)N(C2CC2)S(=O)(=O)c2cc(Cl)c(Cl)cc2Cl)c1F` [compound 361], for which the chromatographic logP turned out to be 4.
Turning to `Cn1nc(C(F)(F)F)c(C(=O)N(C2CC2)S(=O)(=O)c2ccc(F)cc2Cl)c1F` [compound 362], the chromatographic logP was determined as 3.1.
`Cn1nc(C(F)(F)F)c(C(=O)N(C2CC2)S(=O)(=O)c2c(Cl)cc(Cl)cc2Cl)c1F` [compound 363] yielded a chromatographic logP of 3.7.
In the case of `Cc1cc(Cl)cc(Cl)c1S(=O)(=O)N(C(=O)c1c(C(F)(F)F)nn(C)c1F)C1CC1` [compound 367] it was 2.6; in that of `Cn1nc(C(F)(F)F)c(C(=O)N(C2CC2)S(=O)(=O)c2ccc(Oc3ncc(C(F)(F)F)cc3Cl)cc2)c1F` [compound 372], 4.2; in that of `CCc1nn(C)c(F)c1C(=O)N(C1CC1)S(=O)(=O)c1cc(Cl)cc(Cl)c1` [compound 376], 3.9.
Compound `CCc1nn(C)c(F)c1C(=O)N(C1CC1)S(=O)(=O)c1ccc(Cl)c(Cl)c1` [compound 378] showed a chromatographic logP of 3.8.
As to `CCc1nn(C)c(F)c1C(=O)N(C1CC1)S(=O)(=O)c1c(Cl)cc(Cl)cc1Cl` [compound 379], the chromatographic logP was found to be 3.6.
`CCc1nn(C)c(F)c1C(=O)N(C1CC1)S(=O)(=O)c1c(C)nn(C)c1Cl` [compound 382]: the chromatographic logP came out at 2.3.
The same measure for `CCc1nn(C)c(F)c1C(=O)N(C1CC1)S(=O)(=O)c1cc(C(F)(F)F)ccc1Cl` [compound 384]: 3.5; for `CCc1nn(C)c(F)c1C(=O)N(C1CC1)S(=O)(=O)c1ccc(Br)cc1Cl` [compound 385]: 3.4.
Compound `CCc1nn(C)c(F)c1C(=O)N(C1CC1)S(=O)(=O)c1c(Cl)cc(C(F)(F)F)cc1Cl` [compound 387] yielded a chromatographic logP of 3.8.
As to `CCc1nn(C)c(F)c1C(=O)N(C1CC1)S(=O)(=O)c1ccc(Oc2ccc(Cl)cc2)cc1` [compound 391], the chromatographic logP worked out at 4.2.
In the case of `COc1nn(C)cc1C(=O)N(C1CC1)S(=O)(=O)c1c(Cl)cc(C(F)(F)F)cc1Cl` [compound 396] it was 3.
In turn, `Cn1nc(C(F)(F)F)c(C(=O)N(C2CC2)S(=O)(=O)c2c(Cl)sc(Cl)c2Br)c1F` [compound 436] yielded a chromatographic logP of 3.9.
In the case of `CCc1nn(C)c(F)c1C(=O)N(C1CC1)S(=O)(=O)c1c(Cl)sc(Cl)c1Br` [compound 437] it was 3.8; in that of `CCc1nn(C)c(F)c1C(=O)N(C1CC1)S(=O)(=O)c1csc(Cl)c1Cl` [compound 438], 4; in that of `COc1nn(C)cc1C(=O)N(C1CC1)S(=O)(=O)c1csc(Cl)c1Cl` [compound 440], 3.1.
The compound `Cc1nn(C)c(Cl)c1S(=O)(=O)N(C(=O)c1c(C(F)(F)F)nn(C)c1F)C1CC1` [compound 443] showed a chromatographic logP of 2.6.
`COc1nn(C)cc1C(=O)N(C1CC1)S(=O)(=O)c1c(C)nn(C)c1Cl` [compound 444] displayed a chromatographic logP of 1.7.
On to `CCc1nn(C)c(F)c1C(=O)N(C1CC1)S(=O)(=O)c1cnc(Cl)c(Br)c1` [compound 448], for which the chromatographic logP came to 3.5.
The same measure for `COc1nn(C)cc1C(=O)N(C1CC1)S(=O)(=O)c1cnc(Cl)c(Br)c1` [compound 449]: 2.
The same measure for `COc1nn(C)cc1C(=O)N(C1CC1)S(=O)(=O)c1c(Cl)cc(Cl)cc1Cl` [compound 461]: 2.7; for `COc1nn(C)cc1C(=O)N(C1CC1)S(=O)(=O)c1ccc(Oc2cccc(Cl)c2)cc1Br` [compound 468]: 3.7.
`COc1nn(C)cc1C(=O)N(C1CC1)S(=O)(=O)c1ccc(Oc2ccc(Cl)cc2Cl)cc1Br` [compound 477] had a chromatographic logP of 4.1.
`COc1nn(C)cc1C(=O)N(C1CC1)S(=O)(=O)c1ccc(Oc2ccc(Cl)c(Cl)c2)cc1Br` [compound 478] had a chromatographic logP of 4.2.
`COc1nn(C)cc1C(=O)N(C1CC1)S(=O)(=O)c1ccc(Oc2ccc(Br)c(Cl)c2)cc1Br` [compound 480]: the chromatographic logP was 4.2.
In turn, `COc1nn(C)cc1C(=O)N(C1CC1)S(=O)(=O)c1ccc(Oc2cc(Cl)cc(Cl)c2)cc1Br` [compound 481] gave a chromatographic logP of 4.3.
`CCOc1nn(C)cc1C(=O)N(C1CC1)S(=O)(=O)c1ccc(Oc2ccc(C)nc2)cc1Cl` [compound 525] gave a chromatographic logP of 2.2.
In the case of `CCOc1nn(C)cc1C(=O)N(C1CC1)S(=O)(=O)c1ccc(Oc2ccc(OC)c(OC)c2)cc1Cl` [compound 527] it was 3.2.

What is called chromatographic logP is lipophilicity estimated from chromatographic retention. A lower chromatographic logP goes with lower lipophilicity.
